Assays:
Experiment in all cases: combination Emax (second highest fraction inhibited in the dose matrix, 72 h); higher = more inhibition; extreme values may be limits of the assay
[1] = test system: KYSE-140 (Esophageal Squamous Cell Carcinoma)
How it was run: (§1)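 Bliss excess equals the observed combination effect minus the expected value EA + EB − EA·EB, where EA and EB are the effects of each agent alone. Combination Emax is the second-highest inhibition within the matrix. Inhibition was scaled from CellTiter-Glo 2.0 luminescence, with 0 set by vehicle wells and 1 by blank wells, after 72 hours of two-drug dosing of cells plated in 1536-well plates.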

[2] = test system: NCI-H716 (Colorectal Carcinoma)
How it was run: as §1

[3] = test system: NCI-H2228 (Lung Adenocarcinoma)
How it was run: as §1

[4] = test system: JIMT-1 (Breast Carcinoma)
How it was run: as §1

[5] = test system: EPLC-272H (Other Solid Carcinomas)
How it was run: as §1

A204 (Rhabdomyosarcoma) = test system: A204 (Rhabdomyosarcoma)
How it was run: as §1

[6] = test system: CA46 (Burkitt's Lymphoma)
How it was run: as §1

EW-16 (Ewing's Sarcoma) = test system: EW-16 (Ewing's Sarcoma)
How it was run: as §1

5637 (Bladder Carcinoma) = test system: 5637 (Bladder Carcinoma)
How it was run: as §1

[7] = test system: UACC-812 (Breast Carcinoma)
How it was run: as §1

NB13 (Neuroblastoma) = test system: NB13 (Neuroblastoma)
How it was run: as §1

[8] = test system: JVM-2 (B-Cell Non-Hodgkin's Lymphoma)
How it was run: as §1

[9] = test system: CESS (Acute Myeloid Leukemia)
How it was run: as §1

COLO-792 (Melanoma) = test system: COLO-792 (Melanoma)
How it was run: as §1

[10] = test system: HCC1428 (Breast Carcinoma)
How it was run: as §1

[11] = test system: CAL-27 (Oral Cavity Carcinoma)
How it was run: as §1

[12] = test system: DU-4475 (Breast Carcinoma)
How it was run: as §1

[13] = test system: DMS-53 (Small Cell Lung Carcinoma)
How it was run: as §1

[14] = test system: ESO26 (Esophageal Adenocarcinoma)
How it was run: as §1

[15] = test system: GA-10 (Burkitt's Lymphoma)
How it was run: as §1

| Compound | combination Emax [1] | combination Emax [2] | combination Emax [3] | combination Emax [4] | combination Emax [5] | combination Emax (A204 (Rhabdomyosarcoma)) | combination Emax [6] | combination Emax (EW-16 (Ewing's Sarcoma)) | combination Emax (5637 (Bladder Carcinoma)) | combination Emax [7] | combination Emax (NB13 (Neuroblastoma)) | combination Emax [8] | combination Emax [9] | combination Emax (COLO-792 (Melanoma)) | combination Emax [10] | combination Emax [11] | combination Emax [12] | combination Emax [13] | combination Emax [14] | combination Emax [15] |
| --- | --- | --- | --- | --- | --- | --- | --- | --- | --- | --- | --- | --- | --- | --- | --- | --- | --- | --- | --- | --- |
| CN(CCO)CC[C@H](CSc1ccccc1)Nc1ccc(S(=O)(=O)NC(=O)c2ccc(N3CCC([C@@H](O)c4ccccc4-c4ccc(Cl)cc4)CC3)cc2)cc1S(=O)(=O)C(F)(F)F [AZD4320] + C1CN(CCC1(C(=O)N[C@@H](CCO)C2=CC=C(C=C2)Cl)N)C3=NC=NC4=C3C=CN4 [Capivasertib] (first compound max 1 µM, 7x7, partner max 3 µM) | 0.664 | 0.393 | 0.329 | 0.2 | 0.642 | 0.266 | 0.251 | 0.461 | 0.328 | 0.226 | 1 | 0.702 | 0.69 | 0.78 | 0.446 | 0.191 | 0.883 | 0.965 | 0.345 | 0.586 |
| CN(CCO)CC[C@H](CSc1ccccc1)Nc1ccc(S(=O)(=O)NC(=O)c2ccc(N3CCC([C@@H](O)c4ccccc4-c4ccc(Cl)cc4)CC3)cc2)cc1S(=O)(=O)C(F)(F)F [AZD4320] + C=CCn1c(=O)c2cnc(Nc3ccc(N4CCN(C)CC4)cc3)nc2n1-c1cccc(C(C)(C)O)n1 [AZD1775] (first compound max 1 µM, partner max 1 µM) | 0.849 | 0.449 | 0.512 | 0.842 | 0.909 | 0.334 | 0.667 | 0.904 | 0.979 | 0.14 | 1 | 0.981 | 1 | 0.944 | 0.505 | 0.364 | 1 | 0.977 | 0.709 | 1 |
| CN(CCO)CC[C@H](CSc1ccccc1)Nc1ccc(S(=O)(=O)NC(=O)c2ccc(N3CCC([C@@H](O)c4ccccc4-c4ccc(Cl)cc4)CC3)cc2)cc1S(=O)(=O)C(F)(F)F [AZD4320] + CC(=O)O[C@H]1C(=O)[C@@]2(C)[C@H]([C@H](OC(=O)c3ccccc3)[C@]3(O)C[C@H](OC(=O)[C@H](O)[C@@H](NC(=O)c4ccccc4)c4ccccc4)C(C)=C1C3(C)C)[C@]1(OC(C)=O)CO[C@@H]1C[C@@H]2O [Paclitaxel] (first compound max 1 µM, 7x7, partner max 3 µM) |  |  |  |  |  |  |  |  |  | 0.566 |  |  |  |  |  |  |  |  |  |  |
| CN(CCO)CC[C@H](CSc1ccccc1)Nc1ccc(S(=O)(=O)NC(=O)c2ccc(N3CCC([C@@H](O)c4ccccc4-c4ccc(Cl)cc4)CC3)cc2)cc1S(=O)(=O)C(F)(F)F [AZD4320] + C[C@@H](Nc1cc(F)cc(F)c1)c1cc(C(=O)N(C)C)cc2c(=O)cc(N3CCOCC3)oc12 [AZD8186] (first compound max 1 µM, 7x7, partner max 3 µM) | 0.401 | 0.285 | 0.329 | 0.316 | 0.602 | 0.451 | 0.196 | 0.937 | 0.672 |  | 1 | 0.892 | 0.935 | 0.939 | 0.525 | 0.659 | 1 | 0.991 | 0.325 | 0.85 |
| CN(CCO)CC[C@H](CSc1ccccc1)Nc1ccc(S(=O)(=O)NC(=O)c2ccc(N3CCC([C@@H](O)c4ccccc4-c4ccc(Cl)cc4)CC3)cc2)cc1S(=O)(=O)C(F)(F)F [AZD4320] + Nc1ccn([C@@H]2O[C@H](CO)[C@@H](O)C2(F)F)c(=O)n1 [Gemcitabine] (first compound max 1 µM, 7x7, partner max 0.3 µM) |  |  |  |  |  |  |  |  |  | 0.635 | 0.934 |  |  |  |  |  |  |  |  |  |
| COc1nnc2ccc(N3CCC(c4ccc(OCCN5CCN(C)C(=O)[C@H]5C)cc4)CC3)nn12 [AZD5153] + CN(CC[C@H](CSC1=CC=CC=C1)NC2=C(C=C(C=C2)S(=O)(=O)NC(=O)C3=CC=C(C=C3)N4CCC(CC4)[C@H](C5=CC=CC=C5C6=CC=C(C=C6)Cl)O)S(=O)(=O)C(F)(F)F)CCO [AZD4320] (first compound max 1 µM, 7x7, partner max 1 µM) | 0.695 | 0.754 | 0.357 | 0.384 | 0.868 | 0.464 | 0.598 | 0.674 | 0.957 |  |  | 0.866 | 0.841 | 0.856 | 0.915 | 0.608 | 1 | 0.987 | 0.754 | 0.672 |
| Cc1cc2ncnn2cc1Nc1ncc2c(n1)n(C1CCOCC1)c(=O)n2C [AZD7648] + COc1cc([C@@H]2c3cc4c(cc3[C@@H](O[C@@H]3O[C@@H]5CO[C@@H](C)O[C@H]5[C@H](O)[C@H]3O)[C@H]3COC(=O)[C@H]23)OCO4)cc(OC)c1O [Etoposide] (first compound max 10 µM, 7x7, partner max 10 µM) |  |  |  |  |  |  |  |  |  | 0.528 | 0.653 |  |  |  |  |  |  |  |  |  |
| Cc1nc(Nc2ncc(C(=O)Nc3c(C)cccc3Cl)s2)cc(N2CCN(CCO)CC2)n1 [Dasatinib] + CC(=O)Nc1cccc(-n2c(=O)n(C3CC3)c(=O)c3c(Nc4ccc(I)cc4F)n(C)c(=O)c(C)c32)c1 [Trametinib] (first compound max 2 µM, 7x7, partner max 1 µM) | 0.522 | 0.472 | 0.737 | 0.779 | 0.956 | 0.512 | 0.306 | 0.281 | 0.973 |  | 0.169 | 0.742 | 0.527 | 0.556 | 0.205 | 0.868 | 1 | 0.334 | 0.464 | 0.609 |
| CC(=O)c1c(C)c2cnc(Nc3ccc(N4CCNCC4)cn3)nc2n(C2CCCC2)c1=O [Palbociclib] + CN(CC[C@H](CSC1=CC=CC=C1)NC2=C(C=C(C=C2)S(=O)(=O)NC(=O)C3=CC=C(C=C3)N4CCC(CC4)[C@H](C5=CC=CC=C5C6=CC=C(C=C6)Cl)O)S(=O)(=O)C(F)(F)F)CCO [AZD4320] (first compound max 10 µM, 7x7, partner max 1 µM) | 0.303 | 0.497 | 0.275 | 0.257 | 0.594 | 0.377 | 0.336 | 0.64 | 0.619 |  |  | 0.829 | 0.906 | 0.975 | 0.449 | 0.162 | 0.943 | 1 | 0.0747 | 0.95 |
| N#Cc1cnc(Nc2cc(NC[C@H]3CNCCO3)c(C(F)(F)F)cn2)cn1 [SRA737] + C=CCn1c(=O)c2cnc(Nc3ccc(N4CCN(C)CC4)cc3)nc2n1-c1cccc(C(C)(C)O)n1 [AZD1775] (first compound max 10 µM, partner max 1 µM) |  |  |  |  |  |  |  |  |  | 0.511 | 0.853 |  |  |  |  |  |  |  |  |  |
| N#Cc1cnc(Nc2cc(NC[C@H]3CNCCO3)c(C(F)(F)F)cn2)cn1 [SRA737] + CCc1c2c(nc3ccc(O)cc13)-c1cc3c(c(=O)n1C2)COC(=O)[C@]3(O)CC [SN-38] (first compound max 10 µM, 7x7, partner max 0.3 µM) |  |  |  |  |  |  |  |  |  | 0.475 | 0.88 |  |  |  |  |  |  |  |  |  |
| N#Cc1cnc(Nc2cc(NC[C@H]3CNCCO3)c(C(F)(F)F)cn2)cn1 [SRA737] + Nc1ccn([C@@H]2O[C@H](CO)[C@@H](O)C2(F)F)c(=O)n1 [Gemcitabine] (first compound max 10 µM, 7x7, partner max 0.3 µM) |  |  |  |  |  |  |  |  |  | 0.592 |  |  |  |  |  |  |  |  |  |  |
| N#Cc1cnc(Nc2cc(NC[C@H]3CNCCO3)c(C(F)(F)F)cn2)cn1 [SRA737] + O=c1[nH]cc(F)c(=O)[nH]1 [5-Fluorouracil] (first compound max 10 µM, 7x7, partner max 20 µM) |  |  |  |  |  |  |  |  |  | 0.323 | 0.732 |  |  |  |  |  |  |  |  |  |
| C[C@@H](c1ccc2nccn2c1)n1nnc2ncc(-c3cnn(C)c3)nc21 [Savolitinib] + CN(CC[C@H](CSC1=CC=CC=C1)NC2=C(C=C(C=C2)S(=O)(=O)NC(=O)C3=CC=C(C=C3)N4CCC(CC4)[C@H](C5=CC=CC=C5C6=CC=C(C=C6)Cl)O)S(=O)(=O)C(F)(F)F)CCO [AZD4320] (first compound max 1 µM, 7x7, partner max 1 µM) | 0.236 | 0.189 | 0.134 | 0.213 | 0.257 | 0.0836 | 0.0638 | 0.416 | 0.179 |  |  | 0.417 | 0.291 | 0.798 | 0.476 | 0.17 | 0.871 | 0.994 | 0.127 | 0.138 |

From the supplement of paper PMC11061612
